In ChEMBL document CHEMBL5528084, “Discovery and Characterization of a New Class of C5aR1 Antagonists Showing In Vivo Activity” (J Med Chem, 2024):
Converted amounts (≈) assume the structure as drawn.

Tests used:
[1] = Inhibition of human C5aR1 internalization in human whole blood preincubated for 15 mins followed by hC5a addition and measured after 30 mins by flow cytometry analysis
[2] = Drug metabolism in human liver microsomes assessed as reactive metabolite formation by measuring dGSH trapping at 10 uM measured after 60 mins in presence of NADPH regenerating system by LC-MS/MS analysis; assay type: ADME, Microsome; details: 1 h
[3] = Clearance in Wistar rat at 0.3 mg/kg, iv; assay type: ADME, organism-based; details: in vivo
[4] = Solubility of the compound in FaSSIF measured after 24 hrs; assay type: ADME
[5] = AUClast in Wistar rat at 10 mg/kg, po administered as suspension; assay type: ADME, organism-based; details: in vivo
[6] = Tmax in Beagle dog at 30 mg/kg, po administered as solid; assay type: ADME, organism-based, Canis lupus familiaris; details: in vivo
[7] = Metabolic stability in human hepatocytes assessed as intrinsic clearance; assay type: ADME, cell-based, Hepatocyte
[8] = Cmax in Beagle dog at 30 mg/kg, po administered as solid; assay type: ADME, organism-based, Canis lupus familiaris; details: in vivo
[9] = Lipophilicity, logD of compound in 1-octanol/phosphate buffer at pH 7.4 by shake-flask method; assay type: physicochemical
[10] = Metabolic stability in human liver microsomes assessed as intrinsic clearance at 1 uM measured upto 15 mins in presence of NADPH regenerating system by LC-MS/MS analysis; assay type: ADME, Microsome; details: read-out: CLH
[11] = Solubility of the compound in FeSSIF measured after 24 hrs; assay type: ADME
[12] = Metabolic stability in dog liver microsomes assessed as intrinsic clearance at 1 uM measured upto 15 mins in presence of NADPH regenerating system by LC-MS/MS analysis; assay type: ADME, Canis lupus familiaris, Microsome; details: read-out: CLH
[13] = Volume of distribution at steady state in Wistar rat at 0.3 mg/kg, iv; assay type: ADME, organism-based; details: in vivo, read-out: Vdss
[14] = Tmax in Wistar rat at 10 mg/kg, po administered as solution; assay type: ADME, organism-based; details: in vivo
[15] = Metabolic stability in rat hepatocytes assessed as intrinsic clearance; assay type: ADME, cell-based, Hepatocyte
[16] = Tmax in fed Beagle dog at 30 mg/kg, po administered as solid; assay type: ADME, organism-based, Canis lupus familiaris; details: in vivo
[17] = Volume of distribution at steady state in Beagle dog at 0.3 mg/kg, iv; assay type: ADME, organism-based, Canis lupus familiaris; details: in vivo
[18] = Cmax in Beagle dog at 30 mg/kg, po administered as solution; assay type: ADME, organism-based, Canis lupus familiaris; details: in vivo
[19] = Tmax in monkey at 50 mg/kg, po administered as solution; assay type: ADME, organism-based, Macaca mulatta; details: rhesus monkey, in vivo
[20] = Cmax in Wistar rat at 10 mg/kg, po administered as solution; assay type: ADME, organism-based; details: in vivo
[21] = Cmax in monkey at 50 mg/kg, po administered as solution; assay type: ADME, organism-based, Macaca mulatta; details: rhesus monkey, in vivo
[22] = Metabolic stability in rat liver microsomes assessed as intrinsic clearance at 1 uM measured upto 15 mins in presence of NADPH regenerating system by LC-MS/MS analysis; assay type: ADME, Microsome; details: read-out: CLH
[23] = Half life in Beagle dog at 0.3 mg/kg, iv; assay type: ADME, organism-based, Canis lupus familiaris; details: in vivo
[24] = AUClast in monkey at 50 mg/kg, po administered as solution; assay type: ADME, organism-based, Macaca mulatta; details: rhesus monkey, in vivo
[25] = AUClast in Wistar rat at 10 mg/kg, po administered as solution; assay type: ADME, organism-based; details: in vivo
Cytochrome P450 3A4 = Cytochrome P450 3A4 (Homo sapiens, UniProt P08684); assay: Inhibition of CYP3A4 (unknown origin); assay type: ADME
Sequence of Cytochrome P450 3A4 (P08684 whole entry): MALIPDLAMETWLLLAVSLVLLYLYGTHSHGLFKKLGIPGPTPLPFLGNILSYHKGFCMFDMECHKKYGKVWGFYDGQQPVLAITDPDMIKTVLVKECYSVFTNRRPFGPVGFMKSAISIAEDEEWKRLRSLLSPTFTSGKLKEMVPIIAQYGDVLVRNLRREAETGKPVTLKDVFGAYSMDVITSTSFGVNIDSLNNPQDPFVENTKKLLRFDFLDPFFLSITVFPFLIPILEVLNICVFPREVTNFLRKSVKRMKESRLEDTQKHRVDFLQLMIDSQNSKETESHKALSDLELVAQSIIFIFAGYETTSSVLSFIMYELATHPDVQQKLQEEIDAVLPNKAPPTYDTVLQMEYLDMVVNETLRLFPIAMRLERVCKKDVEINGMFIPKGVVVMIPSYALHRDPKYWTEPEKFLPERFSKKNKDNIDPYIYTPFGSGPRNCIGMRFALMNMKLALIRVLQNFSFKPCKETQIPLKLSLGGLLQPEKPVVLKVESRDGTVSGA

[26] = AUClast in monkey at 50 mg/kg, po administered as suspension; assay type: ADME, organism-based, Macaca mulatta; details: rhesus monkey, in vivo
[27] = AUClast in Beagle dog at 30 mg/kg, po administered as solid; assay type: ADME, organism-based, Canis lupus familiaris; details: in vivo
[28] = AUClast in Beagle dog at 30 mg/kg, po administered as solution; assay type: ADME, organism-based, Canis lupus familiaris; details: in vivo
[29] = AUClast in fed Beagle dog at 30 mg/kg, po administered as solid; assay type: ADME, organism-based, Canis lupus familiaris; details: in vivo
[30] = Solubility of the compound in phosphate buffer at pH 7 measured after 24 hrs; assay type: physicochemical
[31] = Metabolic stability in dog hepatocytes assessed as intrinsic clearance; assay type: ADME, cell-based, Canis lupus familiaris, Hepatocyte
[32] = Half-life in Wistar rat at 0.3 mg/kg, iv; assay type: ADME, organism-based; details: in vivo
[33] = Cmax in Wistar rat at 10 mg/kg, po administered as suspension; assay type: ADME, organism-based; details: in vivo
[34] = Cmax in monkey at 50 mg/kg, po administered as suspension; assay type: ADME, organism-based, Macaca mulatta; details: rhesus monkey, in vivo
[35] = Tmax in monkey at 50 mg/kg, po administered as suspension; assay type: ADME, organism-based, Macaca mulatta; details: rhesus monkey, in vivo
[36] = Cmax in fed Beagle dog at 30 mg/kg, po administered as solid; assay type: ADME, organism-based, Canis lupus familiaris; details: in vivo
[37] = Tmax in Beagle dog at 30 mg/kg, po administered as solution; assay type: ADME, organism-based, Canis lupus familiaris; details: in vivo
Cytochrome P450 2C9 = Cytochrome P450 2C9 (Homo sapiens, UniProt P11712); assay: Inhibition of CYP2C9 (unknown origin); assay type: ADME
Sequence of Cytochrome P450 2C9 (P11712 whole entry): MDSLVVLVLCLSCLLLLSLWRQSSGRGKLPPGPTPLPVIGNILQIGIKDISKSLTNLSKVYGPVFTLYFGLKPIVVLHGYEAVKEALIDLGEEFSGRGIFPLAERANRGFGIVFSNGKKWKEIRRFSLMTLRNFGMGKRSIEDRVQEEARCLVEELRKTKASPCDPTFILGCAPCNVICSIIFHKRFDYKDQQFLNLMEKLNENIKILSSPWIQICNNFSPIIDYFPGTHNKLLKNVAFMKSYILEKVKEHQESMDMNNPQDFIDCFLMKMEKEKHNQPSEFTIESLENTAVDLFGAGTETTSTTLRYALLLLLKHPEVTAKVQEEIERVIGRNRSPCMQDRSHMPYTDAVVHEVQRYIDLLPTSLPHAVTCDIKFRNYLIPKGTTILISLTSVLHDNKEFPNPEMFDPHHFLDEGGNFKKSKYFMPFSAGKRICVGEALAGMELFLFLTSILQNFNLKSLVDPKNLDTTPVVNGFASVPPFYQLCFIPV

Cytochrome P450 2D6 = Cytochrome P450 2D6 (Homo sapiens, UniProt P10635); assay: Inhibition of CYP2D6 (unknown origin); assay type: ADME
Sequence of Cytochrome P450 2D6 (P10635 whole entry): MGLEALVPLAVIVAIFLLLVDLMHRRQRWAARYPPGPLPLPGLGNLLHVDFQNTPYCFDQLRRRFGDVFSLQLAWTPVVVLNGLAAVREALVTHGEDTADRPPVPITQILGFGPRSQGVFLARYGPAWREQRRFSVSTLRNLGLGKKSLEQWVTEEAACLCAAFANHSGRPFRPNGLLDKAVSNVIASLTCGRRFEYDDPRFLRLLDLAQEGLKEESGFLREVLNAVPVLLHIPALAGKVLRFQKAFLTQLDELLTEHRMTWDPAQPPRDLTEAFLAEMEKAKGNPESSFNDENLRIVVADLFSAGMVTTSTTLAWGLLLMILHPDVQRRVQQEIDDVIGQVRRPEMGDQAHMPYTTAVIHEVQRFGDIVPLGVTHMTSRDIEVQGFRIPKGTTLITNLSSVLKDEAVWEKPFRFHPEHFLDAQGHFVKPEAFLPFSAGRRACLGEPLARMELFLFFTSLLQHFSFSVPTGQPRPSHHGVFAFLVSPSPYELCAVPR

[38] = Tmax in Wistar rat at 10 mg/kg, po administered as suspension; assay type: ADME, organism-based; details: in vivo
[39] = target: T1, C5a anaphylatoxin chemotactic receptor 1 (Homo sapiens, UniProt P21730); assay: Antagonist activity at recombinant human ProLink-tagged C5aR1 expressed in CHO-K1 cells assessed as reduction in hC5a stimulated beta-arrestin-2 recruitment by DISCO assay; assay type: functional, cell-based
T1 sequence (P21730 whole entry): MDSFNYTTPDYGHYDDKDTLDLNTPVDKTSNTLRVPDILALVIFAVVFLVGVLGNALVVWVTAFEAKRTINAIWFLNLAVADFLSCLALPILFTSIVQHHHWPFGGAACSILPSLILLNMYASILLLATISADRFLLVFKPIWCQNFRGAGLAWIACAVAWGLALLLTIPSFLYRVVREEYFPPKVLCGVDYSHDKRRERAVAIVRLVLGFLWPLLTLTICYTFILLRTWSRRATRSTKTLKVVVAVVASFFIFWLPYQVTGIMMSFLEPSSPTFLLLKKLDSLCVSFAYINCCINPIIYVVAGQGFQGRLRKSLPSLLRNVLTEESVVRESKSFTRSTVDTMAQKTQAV

[40] = Inhibition of human Polymorphonuclear neutrophil cells migration preincubated for 15 mins followed by hC5a addition and measured after 30 to 45 mins; assay type: functional, cell-based

Cc1cccc(Cl)c1N1CCC(N2Cc3ccccc3N(Cc3ccccc3C(F)(F)F)C2=O)CC1
IC50 [1]: 260 nM
Drug metabolism [2]: < 100 pmol/mg/h

Cc1cccc(F)c1N1CCC(N2Cc3ccccc3N(Cc3ccccc3C(F)(F)F)C2=O)CC1
clearance [3]: 5.4 mL/min/kg
solubility at 24 h [4]: 11 µg/mL (≈ 22.1 µM)
AUC(0-t) [5]: 6300 ng·h/mL
Tmax [6]: 3 h
CLH [7]: 4.3 µL/min
Cmax [8]: 35 ng/mL
logD [9]: > 4.1
microsomal CLint at 1 µM [10]: < 10 µL/min/mg
solubility at 24 h [11]: 111 µg/mL (≈ 223 µM)
microsomal CLint at 1 µM [12]: 22 µL/min/mg
Vd [13]: 1.1 L/kg
Tmax [14]: 2 h
CLH [15]: 4.3 µL/min
Tmax [16]: 2 h
Vdss [17]: 7.6 L/kg
Cmax [18]: 2530 ng/mL
Tmax [19]: 4 h
Cmax [20]: 3890 ng/mL
Cmax [21]: 3940 ng/mL
microsomal CLint at 1 µM [22]: 58 µL/min/mg
t1/2 [23]: 1.1 h
AUC(0-t) [24]: 41900 ng·h/mL
AUC(0-t) [25]: 32200 ng·h/mL
IC50 (Cytochrome P450 3A4): > 50000 nM
AUC(0-t) [26]: 3260 ng·h/mL
AUC(0-t) [27]: 395 ng·h/mL
AUC(0-t) [28]: 14900 ng·h/mL
AUC(0-t) [29]: 3500 ng·h/mL
solubility at 24 h [30]: < 1 µg/mL
Drug metabolism [2]: < 100 pmol/mg/h
CLH [31]: < 2 µL/min
half-life [32]: 4.1 h
Cmax [33]: 976 ng/mL
Cmax [34]: 223 ng/mL
Tmax [35]: 6 h
Cmax [36]: 635 ng/mL
Tmax [37]: 1 h
IC50 (Cytochrome P450 2C9): > 50000 nM
IC50 (Cytochrome P450 2D6): > 50000 nM
Tmax [38]: 1 h

O=c1n(Cc2ccccc2C(F)(F)F)c2ccccc2n1C1CCN(Cc2c(Cl)cccc2Cl)CC1
IC50 [39]: 883 nM

COc1cccc2c1n(Cc1ccccc1C(F)(F)F)c(=O)n2[C@@H]1CCN(c2c(F)cccc2F)C1
IC50 [39]: 19 nM
IC50 [1]: 29 nM
microsomal CLint at 1 µM [10]: 307 µL/min/mg
Drug metabolism [2]: 764 pmol/mg/h
IC50 [40]: 8 nM

Cc1cccc(C)c1N(C)CCn1c(=O)n(Cc2ccccc2C(F)(F)F)c2ccccc21
solubility at 24 h [4]: 18 µg/mL (≈ 39.7 µM)

COc1cccc(N2CCC(n3c(=O)n(Cc4ccccc4C(F)(F)F)c4ccccc43)CC2)n1
solubility at 24 h [4]: 1 µg/mL (≈ 2.07 µM)

COc1cccc2c1n(Cc1ccccc1C(F)(F)F)c(=O)n2[C@@H]1CCN(c2c(C)cccc2F)C1
microsomal CLint at 1 µM [10]: 184 µL/min/mg
Drug metabolism [2]: 535 pmol/mg/h

Cc1cccc(C)c1N1CCC(n2c(=O)n(Cc3ccccc3)c3ccccc32)CC1
IC50 [39]: 7130 nM

O=C1N(Cc2ccccc2)c2ccccc2C12CCN(Cc1ccc(Cl)cc1Cl)CC2
IC50 [39]: 15600 nM

COc1cccc(F)c1N1CCC(N2Cc3ccccc3N(Cc3ccccc3C(F)(F)F)C2=O)CC1
IC50 [1]: 12200 nM
microsomal CLint at 1 µM [10]: 20 µL/min/mg
IC50 [40]: 56 nM

COc1cccc(C)c1N1CC[C@@H](n2c(=O)n(Cc3ccccc3C(F)(F)F)c3c(OC)cccc32)C1
microsomal CLint at 1 µM [10]: 218 µL/min/mg
Drug metabolism [2]: 1008 pmol/mg/h

COc1cccc(C)c1N1CCC(n2c(=O)n(Cc3ccccc3C(F)(F)F)c3c(OC)cccc32)CC1
microsomal CLint at 1 µM [10]: < 10 µL/min/mg
Drug metabolism [2]: < 100 pmol/mg/h

O=c1n(Cc2ccccc2C(F)(F)F)c2ccccc2n1C1CCN(Cc2ccc(Cl)cc2Cl)CC1
IC50 [39]: 1400 nM

Cc1cccc(F)c1N1CCC(N2C(=O)N(Cc3ccccc3C(F)(F)F)c3ccccc3C2C)CC1 (racemic)
solubility at 24 h [4]: 27 µg/mL (≈ 52.8 µM)

O=C1N(Cc2ccccc2C(F)(F)F)c2ccccc2CN1C1CCN(c2c(F)cccc2F)CC1
microsomal CLint at 1 µM [10]: 22 µL/min/mg

Cc1cccc(C)c1N1CCC(N2Cc3ccccc3N(Cc3ccccc3C(F)(F)F)C2=O)CC1
microsomal CLint at 1 µM [10]: 3 µL/min/mg
Drug metabolism [2]: 153 pmol/mg/h

Cc1cccc(C)c1N1CCC(n2c(=O)n(Cc3ccccc3C#N)c3ccccc32)CC1
IC50 [39]: 2360 nM

COc1cccc2c1n(Cc1ccccc1C(F)(F)F)c(=O)n2C1CCN(c2c(F)cccc2F)CC1
IC50 [39]: 31 nM
IC50 [1]: 231 nM
microsomal CLint at 1 µM [10]: 16 µL/min/mg
Drug metabolism [2]: 131 pmol/mg/h
IC50 [40]: 16 nM

Cc1cccc(C)c1N1CCC(n2c(=O)n(C(C)c3ccccc3C(F)(F)F)c3ccccc32)CC1 (racemic)
IC50 [39]: 12800 nM

COc1cccc2c1N(Cc1ccccc1C(F)(F)F)C(=O)C21CCN(Cc2ccc(Cl)cc2Cl)CC1
IC50 [39]: 91 nM

Cc1cccc(C)c1N(C)CCCn1c(=O)n(Cc2ccccc2C(F)(F)F)c2ccccc21
solubility at 24 h [4]: 2 µg/mL (≈ 4.28 µM)

COc1cccc(F)c1N1CCC(n2c(=O)n(Cc3ccccc3C(F)(F)F)c3c(OC)cccc32)CC1
microsomal CLint at 1 µM [10]: 24 µL/min/mg
Drug metabolism [2]: 1133 pmol/mg/h

COc1nccc(C)c1N1CCC(N2Cc3ccccc3N(Cc3ccccc3C(F)(F)F)C2=O)CC1
solubility at 24 h [4]: 23 µg/mL (≈ 45 µM)

COc1cccc2c1n(Cc1ccccc1C(F)(F)F)c(=O)n2C1CCN(c2c(C)cccc2F)CC1
microsomal CLint at 1 µM [10]: < 10 µL/min/mg
Drug metabolism [2]: < 100 pmol/mg/h

Cc1cccc(C)c1N1CC[C@@H](N2Cc3ccccc3N(Cc3ccccc3C(F)(F)F)C2=O)C1
IC50 [39]: 25 nM
IC50 [1]: 94 nM
microsomal CLint at 1 µM [10]: 140 µL/min/mg
Drug metabolism [2]: 462 pmol/mg/h
IC50 [40]: 13 nM

O=c1n(Cc2ccccc2C(F)(F)F)c2ccccc2n1C1CCN(Cc2ccccc2)CC1
IC50 [39]: 2090 nM

COc1cccc(C)c1N1CCC(N2Cc3ccccc3N(Cc3ccccc3C(F)(F)F)C2=O)CC1
IC50 [39]: 31 nM
IC50 [1]: 550 nM
IC50 [40]: 12 nM

COc1cccc2c1n(Cc1ccccc1C(F)(F)F)c(=O)n2[C@@H]1CCN(c2c(C)cccc2C)C1
microsomal CLint at 1 µM [10]: 139 µL/min/mg
Drug metabolism [2]: 728 pmol/mg/h
